Results published in patent US20170197938A1, “A QUINOLINE DERIVATIVE FOR THE TREATMENT OF INFLAMMATORY DISEASES AND AIDS” (ABIVAX, priority 2014, published 2017).

How the values were obtained:
[1] = tested on: HIV-1; assay: Inhibition of HIV-1 production in infected PBMCs (p24 ELISA); assay type: cell-based; conditions: Human immunodeficiency virus 1, PBMC, read-out: Activity (IC50)
Procedure: Within this framework, the peripheral blood mononuclear cells (PBMCs) of healthy donors are isolated by centrifugation on a FICOLL gradient. The cells are then activated two days to a density of 1.5×10^6 cells/ml in RPMI plutamax medium supplemented with 10% fetal calf serum (FCS), 40 U/ml of IL2 and 5 μg/ml PHA, in an incubator at 37° C., 5% CO2.
A standard experiment using 96 plates to test 30 molecules in triplicates including positive and negative controls, is performed as follows:
PHA/IL2 activated PBMCs are washed with RPMI 10% FCS and resuspended at 1.5×10^6 cells/ml in RPMI glutamax 10% FCS, 40 U/ml I12. The cells are seeded in 96 wells (1.5 10^5 cells/well/100 μl). Viral infection is performed with 1 ng of AdaM/well. 100 μl of tested molecules at concentration of 20 μM are added to each well (10 μM final concentration). Virus production is determined by p24 antigen immunosorbent assays after 3 and 6 days of infection (Kit Innogenetics). Typically PBMCs are prepared from several healthy donors (around 11 different donors). […]
The efficacy of compound of formula (1) and of compound no 1 as disclosed in document WO 2012/080953 is measured by the HIV-specific enzyme-linked immunosorbent assay, p24 ELISA.
Drug efficacy is expressed as percent inhibition of the HIV p24 antigen in this rapid and sensitive assay.

[2] = tested on: miR-124; assay: miR-124 expression in PBMCs treated with screened molecules (RT-qPCR, relative quantification); assay type: cell-based, human; conditions: for Fold-change compared to DMSO treated cells, Mean (miR-124 expression): PBMCs of healthy donors, 6 days treatment, quinoline derivative 5 μM, antiretroviral drugs 10 μM, mean of 4 or 5 donors; for effect on miR-124 expression in PBMCs (in words): antiretrovirals in four donors
Procedure: For that purpose, Peripheral blood mononuclear cells (PBMCs) of several healthy donors have been isolated by centrifugation on a FICOLL™ gradient according to standard protocols.
Briefly, 60-70 mL of buffy-coat are poured in a flask of 175 cm^2, and the volume is adjusted to 300 mL using PBS in order to obtain a dilution of about 5-fold of the buffy cost. 38 mL of diluted Buffy are then added to Falcon™ tubes of 50 mL comprising 12 mL of FICOLL™ (Histopack-1077) at ambient temperature. The preparation is centrifugated for 30 minutes at 515 rcf at ambient temperature. The lymphocyte ring is recovered from the Falcon™ tube with a transfer pipette (Pastette®) and then washed with PBS using centrifugation for 10 minutes at 290 rcf and at ambient temperature until the supernatant becomes clear.
The cells are then resuspended at 37° C. to a density of 1.5×10^6 cells/mL in RPMI Glutamax medium (Life Technologies Ref 61870-010) supplemented with 10% fetal calf serum (FCS) (Thermo Fisher Ref SV30160.03) and without activation. Cells are incubated for 48 hours at 37° C. under 5% CO2.
Six-well plates are used for the screening. Within each well comprising 3.10^6 cell/4 ml RPMI supplemented with 10% fetal calf serum and 40 U/mL IL-2 (Peprotech Ref 200-02) are added screened molecules. 100% DMSO (4 μL) is added to the well and tested as a negative control.
Each tested condition is set up as described here below and the final corresponding volume is adjusted accordingly in the well: • 1) Quinoline derivative in 100% DMSO—(5 μM and final volume 4 μL) • 2) Antiretroviral drugs: Maraviroc, Efavirenz, Darunavir, AZT (10 μM for all—final volume 4 μL).
The wells are incubated for three days at 37° C. under 5% CO2. Medium is changed (Day 3) according to standard protocols. Briefly, plates are centrifugated at 290 rcf for 5 minutes and 3 mL of supernatant is removed. 3 mL of RPMI supplemented with 10% fetal calf serum and 40 U/mL IL-2 is then added with 3 μL of a stock solution of screened molecule at 5 mM in 100% DMSO or 3 μL of 100% DMSO as a negative control.
Cells are recovered within Falcon™ tubes of 15 mL, centrifugated at 290 rcf for 5 minutes, and then washed in 10 mL PBS and further centrifugated at 290 rcf for 5 minutes. Cells are then resuspended in 1 mL PBS and counted.
6×10^6 cells are recovered and centrifugated at 290 rcf for 5 minutes. The cell pellet is lysed in 300 μL of ML lysis buffer from the Macherey Nagel Nucleospin® miRNA extraction kit (Macherey Nagel Ref 740971), and further stored at −20° C.
5 μL of 2×10^8 copies/μL of spike-in control (Ce_miR-39 from QIAGEN®—reference 219610 of SEQ ID No 6) are added for each sample. The miRNA extraction is achieved using the protocol from Macherey Nagel Nucleospin® miRNA extraction kit using an elution volume for RNAs of 50 μL and miRNAs of 30 μL, and further stored at −20° C.
The reverse transcription step is followed for 12 μL of miRNA using the miScript RT II reverse transcription (RT) kit from QIAGEN® using the miScript HiSpec buffer, and further stored at −20° C.
The quantitative PCR step is achieved using the QIAGEN® miScript SYBR® Green PCR kit and miScript Primer Assays according to the manufacturer's protocol.
The reaction is repeated in triplicates in a 384-well plate according to the manufacturer's protocol on a LightCycler® […] Roche Real-Time PCR system. Cycling conditions are also set up according to the manufacturer's protocol:
From a dilution to the 1/10th in H2O for the miR-124 qPCR (Hs'miR-124a) or to the 1/100th for reference/housekeeping gene qPCR (Hs_miR-26a and Hs_miR-191, using miScript Primer Assays (Hs_miR-124a, Hs_miR-26a and Hs_miR-191 or QIAGEN®—references ms00006622, ms00029239 and ms00003682).
The analysis is achieved using relative quantification models without efficiency correction (2^−ΔΔCp) using the average of crossing points (Cp) values from triplicates of miR-124 and the average of the average of triplicates of miR-26a and miR-191. […]

FC(F)(F)c1ccnc(Nc2ccc3c(OCCN4CCOCC4)ccc(Cl)c3n2)c1
IC50 [1]: 62.3 µM

Cc1cn([C@H]2C[C@H](N=[N+]=[N-])[C@@H](CO)O2)c(=O)[nH]c1=O [AZT]
Fold-change compared to DMSO treated cells, Mean (miR-124 expression) [2]: 0.90
effect on miR-124 expression in PBMCs (in words) [2]: none of the known antiretroviral (Maraviroc, Effavirenz, Darunavir or AZT) has any significant effect

FC(F)(F)c1ccnc(Nc2ccc3cc(OCCN4CCOCC4)cc(Cl)c3n2)c1 [Compound of formula (1), 8-chloro-6-(2-morpholinoethoxy)-N-(4-(trifluoromethyl)pyridin-2-yl)quinolin-2-amine]
Fold-change compared to DMSO treated cells, Mean (miR-124 expression) [2]: 32.04
effect on miR-124 expression in PBMCs (in words) [2]: up-regulate the expression levels of miR-124
IC50 [1]: 0.43 µM

CC(C)CN(C[C@@H](O)[C@H](Cc1ccccc1)NC(=O)O[C@H]1CO[C@H]2OCC[C@H]21)S(=O)(=O)c1ccc(N)cc1 [Darunavir]
Fold-change compared to DMSO treated cells, Mean (miR-124 expression) [2]: 1.08
effect on miR-124 expression in PBMCs (in words) [2]: none of the known antiretroviral (Maraviroc, Effavirenz, Darunavir or AZT) has any significant effect

O=C1Nc2ccc(Cl)cc2[C@@](C#CC2CC2)(C(F)(F)F)O1 [Effavirenz, Efavirenz]
Fold-change compared to DMSO treated cells, Mean (miR-124 expression) [2]: 0.46
effect on miR-124 expression in PBMCs (in words) [2]: none of the known antiretroviral (Maraviroc, Effavirenz, Darunavir or AZT) has any significant effect

Maraviroc
Fold-change compared to DMSO treated cells, Mean (miR-124 expression) [2]: 0.73
effect on miR-124 expression in PBMCs (in words) [2]: none of the known antiretroviral (Maraviroc, Effavirenz, Darunavir or AZT) has any significant effect
